Drawing on PMC10673308, “Unusual Oligomeric Laccase-like Oxidases from Ascomycete Curvularia geniculata VKM F-3561 Polymerizing Phenylpropanoids and Phenolic Compounds under Neutral Environmental Conditions” (Microorganisms, 2023), this text covers Km for five compounds.

The structures appear in SMILES notation.

The subject of assay [1] is T1, oxidase II (laccase-like oxidase II of C. geniculata VKM F-3561).
T1 construct: native, purified from culture liquid; glycosylated oligomer about 870 kDa, subunit about 63 kDa deglycosylated
The assay is described as follows: spectrophotometric oxidation assay. To be noted: apparent, error < 10%. The assay is classed as biochemical, Curvularia geniculata. From the text: spectrophotometric oxidation assay on oxidase II (laccase-like oxidase II of C. geniculata VKM F-3561)

Assay [2] has as its system T2, oxidase I (laccase-like oxidase I of C. geniculata VKM F-3561).
T2 construct: native, purified from culture liquid; glycosylated oligomer about 1035 kDa, subunit about 63 kDa deglycosylated
The assay is described as follows: spectrophotometric oxidation assay. To be noted: apparent, error < 10%. The assay is classed as biochemical, Curvularia geniculata. The text has this: spectrophotometric oxidation assay on oxidase I (laccase-like oxidase I of C. geniculata VKM F-3561)

The Km is the substrate concentration at which the rate is half of its maximum. `CCn1c(=NN=c2sc3cc(S(=O)(=O)O)ccc3n2CC)sc2cc(S(=O)(=O)O)ccc21` [ABTS, 2,2′-azino-bis(3-ethylbenzothiazoline 6-sulfonic acid)]: the Km in assay [1] (20 mM Na-acetate buffer pH 5.0) came out at 152 µM; in assay [2] (20 mM Na-acetate buffer pH 5.0), 280 µM.
In the case of `COc1cc(C=NN=Cc2cc(OC)c(O)c(OC)c2)cc(OC)c1O` [syringaldazine, 4-hydroxy-3,5-dimethoxybenzaldehyde azine], the Km was found to be 46 µM in assay [1] (50 mM Tris-HCl buffer pH 7.2) and 2.3 µM in assay [2] (50 mM Tris-HCl buffer pH 7.2).
As to `COc1cc(/C=C/C(=O)O)ccc1O` [ferulic acid], the Km in assay [1] (50 mM Tris-HCl buffer pH 7.2) is 51 µM; in assay [2] (50 mM Tris-HCl buffer pH 7.2), 37.6 µM.
Regarding `COc1cccc(OC)c1O` [2,6-dimethoxyphenol], the results for the Km in assay [1] (50 mM Tris-HCl buffer pH 7.2) and in assay [2] (50 mM Tris-HCl buffer pH 7.2) were 108 µM and 26 µM, respectively.
In the case of `COc1cc(/C=C/CO)ccc1O` [coniferyl alcohol], the Km is 125 µM in assay [1] (50 mM Tris-HCl buffer pH 7.2) and 130 µM in assay [2] (50 mM Tris-HCl buffer pH 7.2).
